# PubChem BioAssay AID1996
# Details: buffer; pH 7.4; 200.0 µM
row,Structure (SMILES),solubility kinetic [µg/mL]
1,O=C(Cn1cnc2ccccc21)OCC(=O)N1CCCCC1,> 45.2
2,O=C(NCc1ccc(Cl)cc1)[C@@H]1CCCN1S(=O)(=O)c1ccc(Cl)cc1,31.3
3,CC(=O)Nc1c(-c2ccccc2Cl)c(=O)c2ccccc2n1C,> 49
4,CC(C)c1cc(=O)[nH]c(SCC(=O)NC2CCCC2)n1,> 44.3
5,CC1(C)Cc2nc(-c3ccccc3)nc(SCC(=O)N3CCCC3)c2CO1,22.3
6,N#Cc1cc2ccccc2nc1N,> 25.4
7,Cc1nc2cc(NC(=O)Nc3cccc(F)c3)ccc2n1C,3.3
8,CC(C(=O)c1ccccc1)[n+]1cccc(C(N)=O)c1.[Br-] (stereo not given),> 50.3
9,CCC(CC)C(=O)Nc1cccc(C(=O)NCCc2ccccc2)c1,40.8
10,O=C1CN(c2ccccc2)C(=S)N1c1ccccc1.[Na+],7.4
11,CN(CC(O)Cn1c2ccccc2c2ccccc21)S(C)(=O)=O (stereo not given),> 49.9
12,CC(=O)c1cccc(NC(=O)c2ccc3ccccc3c2)c1,1.9
13,CCOc1ncccc1C(=O)N=c1sccn1C,> 39.5
14,COC(=O)c1ccc(NC(=O)c2ccc3nccnc3c2)cc1,3.5
15,Brc1cnc2nc(SCc3nc4ccccc4[nH]3)[nH]c2c1,1.2
16,O=c1oc2c(-c3ccc([N+](=O)[O-])cc3)cc(O)cc2s1,< 0.6
17,CCOc1ccc(NC(=O)N(C2CCCC2)C2CCN(C(C)=O)CC2)cc1,> 56
18,Cc1ccccc1NS(=O)(=O)c1ccc2oc(=O)ccc2c1,> 47.3
19,CCOc1ccc(C2C(C#N)=C(N)Oc3nc[nH]c(=O)c32)cc1 (stereo not given),> 46.5
20,Cc1c(C(=O)Cc2ccccc2)n(C)c2ccccc12,2.5

row,Structure (SMILES),solubility kinetic [µg/mL]
1,O=C(COc1ccccc1[N+](=O)[O-])NCC1(N2CCOCC2)CCCCC1,> 56.6
2,Cc1ccc(Nc2nc(N)c([N+](=O)[O-])c(NCCO)n2)cc1,18.7
3,CC(C)(CC(=O)O)CC(=O)N1CCN(c2nc3cc(Cl)ccc3s2)CC1,> 59.4
4,CCOc1cccc(C(=O)N/N=C/c2ccoc2)c1,> 38.7
5,CC(=O)Nc1ccc2c(c1)CCCC2=O,30.2
6,CC(C)Cn1c(SCC(=O)O)nnc1-c1cccc(S(=O)(=O)N2CCOCC2)c1,> 66.1
7,CC(C)N1CCN(CCCc2ccccc2)CC1CCO (stereo not given),> 43.6
8,CC(=O)c1ccc(OCC(=O)OC(C)C(=O)NC2CCCCC2)cc1 (stereo not given),> 52.1
9,Cc1ccc2c(NC(=S)NC(=O)c3ccccc3)cccc2n1,11.3
10,COc1ccccc1NC(=O)Nc1ccc(C)cn1,0.8
11,CCOC(=O)c1nc2ccccc2c(C)c1C.Cl,25.3
12,CC(Sc1ncccn1)C(=O)NC1CCCC1 (stereo not given),> 37.7
13,CC(C)=CCN1CCN(CC#Cc2ccccc2)CC1CCO (stereo not given),37.9
14,CN1CCC2(CC1)NC(=O)c1ccccc1N2.Cl,> 40.2
15,Cn1ccnc1-c1ccc(-c2nccn2C)cc1,33.8
16,N#C/C(=C\c1cccnc1)c1ccccc1[N+](=O)[O-],8
17,CCCCC(=O)Nc1ccccc1C(C)C,23.3
18,COc1ccccc1C(=O)C1CCCN(C(=O)C2CCCC2)C1 (stereo not given),> 47.3
19,COc1ccc2cc3c(nc2c1)OCC3,25.2
20,O=C(Cc1ccccc1)NC1CCSc2ccccc21 (stereo not given),11.7

row,Structure (SMILES),solubility kinetic [µg/mL]
1,Cc1ccc(NC(=O)N2CCCc3ccccc32)cc1C,29
2,Fc1ccc(N2CCN(C3CCC(c4ccccc4)CC3)CC2)cc1 (stereo not given),1.1
3,CSc1ncccc1C(=O)OCC(=O)NC(C)(C)C,> 42.4
4,N#Cc1cc(-c2ccccc2)nc(N2CCNCC2)n1,> 39.8
5,C(=C\c1ccco1)/c1ccc2ccccc2n1,10.7
6,Clc1ccc(OCCn2cnc(Cl)c2Cl)cc1,21.1
7,Cc1cc(C(=O)NNC(=O)C(CCC(N)=O)NS(=O)(=O)c2ccc(Cl)cc2)c(C)o1 (stereo not given),> 68.5
8,COC(=O)C1=C(C)N(Cc2ccccc2)C(=O)/C1=C\c1ccco1,3.7
9,O=C(CCS(=O)(=O)c1ccccc1)NCc1ccccc1,> 45.5
10,COc1cc(OC)cc(-c2nc(-c3cccs3)no2)c1,< 0.3
11,CCOC(=O)c1cn2nc(Oc3cccc(F)c3)ccc2n1,> 45.2
12,Cc1ccc(N2C(=O)CC(N3CCc4ccccc43)C2=O)cc1Cl (stereo not given),< 0.4
13,COc1ccc(Nc2nc(N)c(C(=O)c3ccc(OC)cc3)s2)cc1,1.4
14,Cc1ccc(NC(=O)c2cncc(Br)c2)nc1,28.1
15,COc1ccc(OC)c(NC(=O)c2ccc3c(c2)OCO3)c1,4.7
16,C=CCNC(=S)N1CCOCC1,> 27.9
17,O=C(CN1C(=O)C(=O)N(Cc2ccco2)C1=O)Nc1ccccc1,> 49.1
18,Cc1ccc(NC(=O)NCc2cccnc2)cc1Cl,39.7
19,CC(=O)c1c(N2CCOCC2)nc2ccc(Cl)cc2c1-c1ccccc1,1.8
20,O=C(Cc1nc2ccccc2[nH]1)c1ccc(Br)cc1,24.6
